Among the test systems are MDA-MB-231 breast; MDA-MB-435; T-47D breast; MDA-N; DLD-1 colon; DMS 114 small cell lung; XF 498 CNS.
Common to all, as to experiment: NCI tumour cell line growth inhibition, 48 h

Molecules are shown by their SMILES.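 Values below derive from 48-hour exposures of cells grown in 96-well plates, with endpoints linearly interpolated between the two concentrations bracketing the appropriate inhibition level. Here, GI50 denotes the concentration required for 50% inhibition of growth. The concentration for full growth arrest is given as TGI.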 A value given as a limit tells only on which side of the number the result lay.

Regarding `CC1=C(C(=O)Nc2ccc(Cl)c(Cl)c2)C(c2ccccc2O)NC(=O)N1` (stereo not drawn), the GI50 was 28 µM in the experiment on MDA-MB-231 breast, 27.4 µM in the experiment with MDA-MB-435 and over 50 µM with T-47D breast. The TGI in the experiment with MDA-MB-231 breast, in the experiment on MDA-MB-435 and in the experiment with T-47D breast was over 50 µM each time.
With `O=C(Nc1ccccc1C(=O)N/N=C(\c1ccccc1)c1ccccn1)c1ccc(F)cc1`, the GI50 in the experiment with MDA-MB-231 breast is 0.705 µM; with MDA-MB-435 it was 0.602 µM; with T-47D breast it was 0.394 µM. In addition, the TGI in the experiment with MDA-MB-231 breast, in the experiment with MDA-MB-435 and with T-47D breast was over 100 µM each time.
Take `Cc1cc(Cl)ccc1NS(=O)(=O)c1ccc(-c2cnc(C3CC3)o2)cc1`: the values for the GI50 with MDA-MB-231 breast, in the experiment on MDA-MB-435 and with T-47D breast were 0.94 µM, 0.0838 µM and 0.369 µM, respectively. Moreover, the TGI in the experiment with MDA-MB-231 breast worked out at 20 µM; in the experiment with MDA-MB-435, 15.5 µM; in the experiment on T-47D breast it was 42.4 µM.
In the case of `CC(C)C(=O)Oc1cc2c(=O)oc3c(OC(=O)C(C)C)c(OC(=O)C(C)C)cc4c(=O)oc(c1OC(=O)C(C)C)c2c34`, the TGI with MDA-MB-231 breast, in the experiment on MDA-MB-435 and with MDA-N was over 100 µM in each case.
Turning to `O=C(Cc1csc2nc(-c3ccc(Br)cc3)cn12)N/N=C/c1ccc(O)cc1`, the GI50 in the experiment with MDA-MB-231 breast was 10.4 µM; in the experiment on MDA-MB-435, 6.27 µM; in the experiment with T-47D breast, 31.8 µM. Further, the TGI in the experiment with MDA-MB-231 breast is 43.2 µM; in the experiment on MDA-MB-435 it was 24.3 µM; in the experiment on T-47D breast, over 100 µM.
As to `CC(=O)Oc1ccc2c(c1)CC[C@@H]1C2CC[C@]2(C)C(=O)NC(=O)CC12` (stereo partly drawn), the TGI in the experiment with MDA-MB-231 breast, in the experiment with MDA-MB-435, in the experiment with MDA-N and with T-47D breast was over 100 µM each time.
For `CC1CC2(C)CC(=O)C1C1C(=O)N(CCN3CCCCC3)C(=O)C12` (stereo not drawn), the GI50 in the experiment with MDA-MB-231 breast, in the experiment on MDA-MB-435 and in the experiment with T-47D breast was over 100 µM throughout. Further, the TGI in the experiment on MDA-MB-231 breast, in the experiment with MDA-MB-435 and in the experiment with T-47D breast was over 100 µM each time.
As for `Cc1cc(Cl)ccc1Nc1nc(C(F)(F)F)ccc1C(=O)N1CCN(c2cccc(Cl)c2)CC1`, the GI50 in the experiment with MDA-MB-231 breast is 11 µM; with MDA-MB-435 it was over 100 µM; in the experiment with T-47D breast, over 100 µM. Further, the TGI with MDA-MB-231 breast, in the experiment on MDA-MB-435 and in the experiment on T-47D breast was over 100 µM each time.
Consider `CC1COCC(C)N1C1=C(Cl)C(=O)c2ccccc2C1=O` (stereo not drawn), for which, in the experiment on MDA-MB-231 breast, the GI50 is 2.46 µM and the TGI is 11 µM. For the same compound, in the experiment with MDA-MB-435, the GI50 was 1.35 µM and the TGI worked out at 2.73 µM.
For the compound `CSc1ccc(C(=O)C(=O)c2ccc(SC)s2)s1`, the TGI in the experiment on MDA-MB-231 breast, with MDA-MB-435, in the experiment on MDA-N and with T-47D breast was over 10 µM throughout.
For `CO[C@@]12[C@@H]3NC3CN1C1=C(C(=O)C(N)=C(C)C1=O)[C@@H]2COC(N)=O` (stereo partly drawn), the values for the GI50 in the experiment on MDA-MB-231 breast, in the experiment with MDA-MB-435 and with T-47D breast were 8.95 µM, 1.13 µM and 1.67 µM, respectively. The TGI is over 54.8 µM with MDA-MB-231 breast, 8.3 µM with MDA-MB-435 and 54.5 µM in the experiment with T-47D breast.
Turning to `CCOC(=O)C(NC(=O)c1[nH]cnc1/N=N/N(C)C)C(C)C` (stereo not drawn), the TGI in the experiment on DLD-1 colon and in the experiment with DMS 114 small cell lung was over 100 µM each time.
Regarding `CCOP(=O)(Nc1ccc2oc(=O)c3ccccc3c2c1)OCC`, the TGI in the experiment with MDA-MB-231 breast, in the experiment on MDA-MB-435, with MDA-N and with T-47D breast was over 100 µM each time.
With `Nc1ccc2c(c1)c(N)nn2C(=O)Nc1ccc(Cc2ccccc2)cc1`, the values for the GI50 in the experiment with MDA-MB-231 breast, with MDA-MB-435 and in the experiment on T-47D breast were 7.74 µM, 7.36 µM and 5.8 µM, respectively. The values for the TGI in the experiment with MDA-MB-231 breast, with MDA-MB-435 and in the experiment with T-47D breast were 22.7 µM, 23.8 µM and 22.8 µM, respectively.
With `CC(=O)OC1CC2C(=O)C(=O)C1(C)C2(C)C` (stereo not drawn), the TGI in the experiment on MDA-MB-231 breast, in the experiment with MDA-MB-435, in the experiment with MDA-N and in the experiment with T-47D breast was over 100 µM each time.
Turning to `O=C(Cc1ccccc1)NN1C(=O)/C(=C\c2ccc(O)cc2)SC1=Nc1ccccc1`, the TGI with MDA-MB-231 breast, in the experiment with MDA-MB-435, with MDA-N and in the experiment on T-47D breast was over 100 µM in each case.
On to `Cc1ccc(C(C)C)cc1NC(=O)Nc1ccc([N+](=O)[O-])cc1`, for which the GI50 with MDA-MB-231 breast was 1.52 µM; with MDA-MB-435, 2.19 µM; in the experiment on T-47D breast, 1.99 µM. The values for the TGI in the experiment with MDA-MB-231 breast, in the experiment on MDA-MB-435 and in the experiment on T-47D breast were 3.65 µM, 6.5 µM and 7.36 µM, respectively.
On to `CC1(C)OC2C(COS(N)(=O)=O)SC(n3cnc4cncnc43)C2O1` (stereo not drawn), for which the GI50 in the experiment with MDA-MB-231 breast, in the experiment with MDA-MB-435 and in the experiment with T-47D breast was over 100 µM throughout. Moreover, the TGI in the experiment with MDA-MB-231 breast, with MDA-MB-435 and with T-47D breast was over 100 µM each time.
Regarding `COC(=O)/C(=N\NC(N)=S)C(C#N)c1ccccc1` (stereo not drawn), the TGI with DLD-1 colon, in the experiment on DMS 114 small cell lung and in the experiment on XF 498 CNS was over 100 µM in each case.
On to `C#CCN(Cc1ccc2nc(N)[nH]c(=O)c2c1)c1ccc(C(=O)NC(CCC(=O)O)C(=O)O)cc1` (stereo not drawn), for which the TGI in the experiment on MDA-MB-231 breast, in the experiment on MDA-MB-435, in the experiment with MDA-N and with T-47D breast was over 100 µM throughout.
As for `CSC1=NCC2(S1)c1ccccc1N(C(=O)OC(C)(C)C)C2N1CCCCC1` (stereo not drawn), in the experiment with MDA-MB-231 breast, the GI50 is 41.8 µM and the TGI was over 100 µM.
As for `N#CC1C=Cc2ccccc2N1C(=O)Oc1ccccc1` (stereo not drawn), the TGI with MDA-MB-231 breast was over 100 µM; with MDA-MB-435 it was 58.7 µM; in the experiment with MDA-N, over 100 µM; in the experiment with T-47D breast, over 100 µM.
Consider `CC/C=C\C/C=C\C[C@H](O)C/C=C1/C(=O)C=C[C@@H]1C/C=C\CCCC(=O)OC`, for which the GI50 in the experiment on MDA-MB-231 breast was 3 µM; with MDA-MB-435 it was 1.21 µM; in the experiment on T-47D breast, 2.1 µM. Moreover, the TGI in the experiment with MDA-MB-231 breast came to 10.3 µM; in the experiment on MDA-MB-435, 6.26 µM; in the experiment on T-47D breast, 9.38 µM.

The values are drawn from PubChem BioAssay (NCI).
